Laboratory results: patent US9090617B1, “Agonists of Src homology-2 containing protein tyrosine phosphatase-1 and treatment methods using the same” (National Taiwan University, priority 2011, dated 2015)

system: PLC5 cells; assay: MTT assay for cell growth inhibition in PLC5 cells; type: cell-based; conditions: not given
Method: These compounds were analyzed by MTT assay for cell growth inhibition in the PLC5 cells.
Next, we changed the pyridine to a quinoline ring and amide linker to generate compounds 12-25. These compounds were also analyzed by MTT assay for cell growth inhibition in the PLC5 cells.

SMILES	IC50
CNC(=O)c1cc(Oc2ccc(NS(=O)(=O)c3ccccc3)cc2)ccn1 [Compound 2, N-Methyl-4-(4-(phenylsulfonamido)phenoxy)picolinamide]	> 40 µM
CNC(=O)c1cc(Oc2ccc(NS(=O)(=O)c3ccc([N+](=O)[O-])cc3)cc2)ccn1 [Compound 3, N-Methyl-4-(4-(4-nitrophenylsulfonamido)phenoxy)picolinamide]	> 40 µM
CNC(=O)c1cc(Oc2ccc(NS(=O)(=O)c3ccc(F)cc3)cc2)ccn1 [Compound 4, 4-(4-(4-Fluorophenylsulfonamido)phenoxy)-N-methylpicolinamide]	> 40 µM
CNC(=O)c1cc(Oc2ccc(NS(=O)(=O)c3ccc(C(C)(C)C)cc3)cc2)ccn1 [Compound 5, 4-(4-(4-tert-Butylphenylsulfonamido)phenoxy)-N-methylpicolinamide]	> 40 µM
CNC(=O)c1cc(Oc2ccc(NS(=O)(=O)c3ccc4ccccc4c3)cc2)ccn1 [Compound 6, N-Methyl-4-(4-(naphthalene-2-sulfonamido)phenoxy)picolinamide]	> 40 µM
CNC(=O)c1cc(Oc2ccc(NS(=O)(=O)c3ccc(C(F)(F)F)cc3Br)cc2)ccn1 [Compound 7, 4-(4-(2-Bromo-4-(trifluoromethyl)phenylsulfonamido)phenoxy)-N-methylpicolinamide]	> 40 µM
CNC(=O)c1cc(Oc2ccc(NS(=O)(=O)c3ccccc3[N+](=O)[O-])cc2)ccn1 [Compound 8, N-Methyl-4-(4-(2-nitrophenylsulfonamido)phenoxy)picolinamide]	> 40 µM
CNC(=O)c1cc(Oc2ccc(NC(=O)c3cc(C(F)(F)F)cc(C(F)(F)F)c3)cc2)ccn1 [Compound 9, 4-(4-(3,5-Bis(trifluoromethyl)benzamido)phenoxy)-N-methylpicolinamide]	> 40 µM
CNC(=O)c1cc(Oc2ccc(NC(=O)c3cc(F)ccc3C(F)(F)F)cc2)ccn1 [Compound 10, 4-(4-(5-Fluoro-2-(trifluoromethyl)benzamido)phenoxy)-N-methylpicolinamide]	> 40 µM
CNC(=O)c1cc(Oc2ccc(NC(=O)c3ccc(C(F)(F)F)cc3)cc2)ccn1 [Compound 11, N-Methyl-4-(4-(4-(trifluoromethyl)benzamido)phenoxy)picolinamide]	> 40 µM
O=[N+]([O-])c1cc(C(F)(F)F)ccc1S(=O)(=O)Nc1ccc(Oc2ccnc3ccccc23)cc1 [Compound 12, 2-Nitro-N-(4-(quinolin-4-yloxy)phenyl)-4-(trifluoromethyl)benzenesulfonamide]	> 40 µM
O=[N+]([O-])c1cc(C(F)(F)F)ccc1S(=O)(=O)Nc1ccc(Oc2ccnc3c([N+](=O)[O-])cccc23)cc1 [Compound 13, 2-Nitro-N-(4-(8-nitroquinolin-4-yloxy)phenyl)-4-(trifluoromethyl)benzenesulfonamide]	> 40 µM
O=S(=O)(Nc1ccc(Oc2ccnc3ccccc23)cc1)c1ccc(C(F)(F)F)cc1Br [Compound 14, 2-Bromo-N-(4-(quinolin-4-yloxy)phenyl)-4-(trifluoromethyl)benzenesulfonamide]	> 40 µM
O=[N+]([O-])c1cccc2c(Oc3ccc(NS(=O)(=O)c4ccc(C(F)(F)F)cc4Br)cc3)ccnc12 [Compound 15, 2-Bromo-N-(4-(8-nitroquinolin-4-yloxy)phenyl)-4-(trifluoromethyl)benzenesulfonamide]	> 40 µM
O=C(Nc1ccc(Oc2ccnc3ccccc23)cc1)c1cc(C(F)(F)F)cc(C(F)(F)F)c1 [Compound 16, N-(4-(Quinolin-4-yloxy)phenyl)-3,5-bis(trifluoromethyl)benzamide]	16 µM
O=C(Nc1ccc(Oc2ccnc3c([N+](=O)[O-])cccc23)cc1)c1cc(C(F)(F)F)cc(C(F)(F)F)c1 [Compound 17, N-(4-(8-Nitroquinolin-4-yloxy)phenyl)-3,5-bis(trifluoromethyl)benzamide]	> 40 µM
O=C(Nc1ccc(Oc2ccnc3ccccc23)cc1)c1cc(C(F)(F)F)ccc1F [Compound 18, 2-Fluoro-N-(4-(quinolin-4-yloxy)phenyl)-5-(trifluoromethyl)benzamide]	21.1 µM
O=C(Nc1ccc(Oc2ccnc3c([N+](=O)[O-])cccc23)cc1)c1cc(C(F)(F)F)ccc1F [Compound 19, 2-Fluoro-N-(4-(8-nitroquinolin-4-yloxy)phenyl)-5-(trifluoromethyl)benzamide]	> 40 µM
Cc1cc(NC(=O)c2cc(C(F)(F)F)cc(C(F)(F)F)c2)ccc1Oc1ccnc2c([N+](=O)[O-])cccc12 [Compound 20, N-(3-Methyl-4-(8-nitroquinolin-4-yloxy)phenyl)-3,5-bis(trifluoromethyl)benzamide]	> 40 µM
Cc1cc(NC(=O)c2cc(C(F)(F)F)cc(C(F)(F)F)c2)ccc1Oc1ccnc2c(N)cccc12 [Compound 21, N-(4-(8-Aminoquinolin-4-yloxy)-3-methylphenyl)-3,5-bis(trifluoromethyl)benzamide]	25.4 µM
CC(=O)Nc1cccc2c(Oc3ccc(NC(=O)c4cc(C(F)(F)F)cc(C(F)(F)F)c4)cc3C)ccnc12 [Compound 22, N-(4-(8-Acetamidoquinolin-4-yloxy)-3-methylphenyl)-3,5-bis(trifluoromethyl)benzamide]	> 40 µM
O=C(Nc1cccc(Oc2ccnc3c([N+](=O)[O-])cccc23)c1)c1cc(C(F)(F)F)cc(C(F)(F)F)c1 [Compound 23, N-(3-(8-Nitroquinolin-4-yloxy)phenyl)-3,5-bis(trifluoromethyl)benzamide]	> 40 µM
Nc1cccc2c(Oc3cccc(NC(=O)c4cc(C(F)(F)F)cc(C(F)(F)F)c4)c3)ccnc12 [Compound 24, N-(3-(8-Aminoquinolin-4-yloxy)phenyl)-3,5-bis(trifluoromethyl)benzamide]	19 µM
CC(=O)Nc1cccc2c(Oc3cccc(NC(=O)c4cc(C(F)(F)F)cc(C(F)(F)F)c4)c3)ccnc12 [Compound 25, N-(3-(8-Acetamidoquinolin-4-yloxy)phenyl)-3,5-bis(trifluoromethyl)benzamide]	10.8 µM

system: HCC cells; assay: Apoptosis analysis by flow cytometry (sub-G1); type: cell-based; conditions: HCC cells, 24 h
Method: Apoptotic cells were measured by flow cytometry (sub-G1). After treatment with various compounds, cells were trypsinized, collected by centrifugation and resuspended in PBS. After centrifugation, the cells were washed in PBS and resuspended in […] (PI) staining solution. Specimens were incubated in the dark for 30 min at 37° C. and then analyzed with an EPICS Profile II flow cytometer (Coulter Corp., Hialeah, Fla.). All experiments were performed in triplicate
Collected cells were fixed in 75% Ethanol and stained with 20 ug/ml Propidium Iodide (PI). Sub-G1 analysis was performed by flow-cytometry. […] Points, mean; bars, SD (n=6).

SMILES	apoptosis (sub-G1)
O=S(=O)(Nc1cccc(Oc2ccn3cc(-c4ccccc4)nc3c2)c1)c1cccc(C(F)(F)F)c1 [SC-37, N-(3-(2-phenylimidazo[1,2-a]pyridin-7-yloxy)phenyl)-3-(trifluoromethyl)benzenesulfonamide]	has no activity in inducing cancer cell apoptosis
N#Cc1ccc(Oc2cccc(NC(=O)C3(C(=O)Nc4cccc(Oc5ccc(C#N)cc5)c4)CC3)c2)cc1 [SC-67, N,N′-bis(3-(4-cyanophenoxyl)phenyl)cyclopropane-1,1-dicarboxamide]	has no activity in inducing cancer cells (PLC5) apoptosis

system: p-STAT3, cyclin D1, survivin, Mc1-1; assay: Western blot of STAT3-related proteins in HCC cells; type: cell-based; conditions: PLC5 cells, 5 and 10 μM, 24 h
Method: Cells were treated with various compounds at 5 and 10 μM for 24 h. Cell lysates were analyzed by western blot.
HCC cells treated with SC-43 (10 μM for 24 h) were collected with RIPA lysis buffer. Antibodies for immunoblotting such as cyclin D1 was purchased from Santa Cruz Biotechnology. Other antibodies such as survivin, phospho-STAT3 (Tyr705), STAT3, Mc1-1, SOCS1, and SOCS3 were from Cell Signaling.

SMILES	cyclin D1 and survivin level
O=[N+]([O-])c1cc(C(F)(F)F)ccc1S(=O)(=O)Nc1ccc(Oc2ccnc3ccccc23)cc1 [Compound 12, 2-Nitro-N-(4-(quinolin-4-yloxy)phenyl)-4-(trifluoromethyl)benzenesulfonamide]	had no effect on either protein

system: HCC cells; assay: cells; conditions: not given
Source text: Points, mean; bars, SD (n=6).
Points, mean; bars, SD ([…]). […] The N-SH2 domain is in orange, the C-SH2 domain is in marine, the PTP domain is in hot pink, and the linkers between them are in gray. […] ELISA, enzyme-linked immunosorbent assay.

SMILES	viability of HCC cells / cytotoxicity
N#Cc1ccc(Oc2cc(NC(=O)Nc3ccc(Cl)c(C(F)(F)F)c3)ccc2F)cc1 [SC-111, 1-(4-chloro-3-(trifluoromethyl)phenyl)-3-(3-(4-cyanophenoxy)-4-fluorophenyl)urea]	exhibits antitumor effect in vitro
